Here are results for nine compounds from ChEMBL document CHEMBL1909046, “DrugMatrix in vitro pharmacology data”.

The target of one data set is Cytochrome P450 2D6 (Homo sapiens, UniProt P10635). Conditions: bti-tn-5b1-4. Further: in other assays of this panel Not Active means under 50% inhibition at 10 µM.
Chain of Cytochrome P450 2D6 (P10635 whole entry): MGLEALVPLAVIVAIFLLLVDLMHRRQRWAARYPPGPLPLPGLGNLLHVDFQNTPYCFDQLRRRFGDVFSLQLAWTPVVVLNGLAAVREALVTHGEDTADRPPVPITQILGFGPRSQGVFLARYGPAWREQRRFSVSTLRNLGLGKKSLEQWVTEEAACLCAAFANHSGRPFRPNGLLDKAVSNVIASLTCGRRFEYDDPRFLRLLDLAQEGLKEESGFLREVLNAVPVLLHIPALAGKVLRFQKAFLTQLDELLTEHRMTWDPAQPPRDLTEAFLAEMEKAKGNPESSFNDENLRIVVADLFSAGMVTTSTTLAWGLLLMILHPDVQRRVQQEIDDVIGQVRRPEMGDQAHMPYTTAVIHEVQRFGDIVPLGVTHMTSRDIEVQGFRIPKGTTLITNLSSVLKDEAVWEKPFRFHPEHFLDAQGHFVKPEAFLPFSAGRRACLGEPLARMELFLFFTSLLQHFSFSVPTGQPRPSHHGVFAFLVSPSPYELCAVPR
As to `CC(C)(CO)C(O)C(=O)NCCCO` (stereo not given) [PANTHENOL], the IC50 result was “Not Active” and the Ki entry is on record as “Not Active”.
With `COc1ccc(Cc2nccc3cc(OC)c(OC)cc23)cc1OC` [PAPAVERINE], the IC50 result is on record as “Not Active” and the Ki entry is reported as “Not Active”.
For the compound `CCCCC1C(=O)N(c2ccccc2)N(c2ccccc2)C1=O` [PHENYLBUTAZONE], the IC50 entry is “Not Active” and the Ki entry was “Not Active”.
As for `Cc1cccc(Nc2cc(Cl)nc(SCC(=O)O)n2)c1C` [PIRINIXIC ACID], the IC50 result is listed as “Not Active” and the Ki entry is listed as “Not Active”.
With `CC[C@H](C)C(=O)O[C@H]1C[C@H](O)C=C2C=C[C@H](C)[C@H](CC[C@@H](O)C[C@@H](O)CC(=O)O)[C@H]21` [PRAVASTATIN], the IC50 result is listed as “Not Active” and the Ki result is reported as “Not Active”.
For the compound `CC(C)(Sc1cc(C(C)(C)C)c(O)c(C(C)(C)C)c1)Sc1cc(C(C)(C)C)c(O)c(C(C)(C)C)c1` [PROBUCOL], the IC50 result is recorded as “Not Active” and the Ki result was “Not Active”.
As to COBALT(II) ACETYLACETONATE, the IC50 result was “Not Active” and the Ki result is on record as “Not Active”.
Turning to INSULIN HUMAN, the IC50 result is “Not Active” and the Ki entry is listed as “Not Active”.
Consider POLYVINYL ALCOHOL, for which the IC50 result is “Not Active” and the Ki entry is “Not Active”.

The target of another data set is Mitogen-activated protein kinase 1 (Homo sapiens, UniProt P28482). The data set is described as follows: DRUGMATRIX: Protein Serine/Threonine Kinase, ERK2 enzyme inhibition (substrate: Myelin Basic Protein). Set-up: species or system Escherichia coli. Conditions: Not Active = under 50% inhibition at 10 µM.
Chain of Mitogen-activated protein kinase 1 (P28482 whole entry): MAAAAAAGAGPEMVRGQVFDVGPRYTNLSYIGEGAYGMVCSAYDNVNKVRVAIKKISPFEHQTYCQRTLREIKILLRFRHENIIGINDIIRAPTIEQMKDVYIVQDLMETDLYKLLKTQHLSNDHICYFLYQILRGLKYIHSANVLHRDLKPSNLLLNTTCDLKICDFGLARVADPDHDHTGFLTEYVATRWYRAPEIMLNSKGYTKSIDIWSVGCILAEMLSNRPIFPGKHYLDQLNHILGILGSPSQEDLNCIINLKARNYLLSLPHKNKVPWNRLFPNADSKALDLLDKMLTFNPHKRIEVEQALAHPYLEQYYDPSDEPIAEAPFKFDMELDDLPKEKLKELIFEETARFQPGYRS
Regarding `CC(C)(CO)C(O)C(=O)NCCCO` (stereo not given) [PANTHENOL], the IC50 result was “Not Active”.
On the same count and under the same terms, the result for `COc1ccc(Cc2nccc3cc(OC)c(OC)cc23)cc1OC` [PAPAVERINE] reads “Not Active”.
Same read-out and setting: the result for `CCCCC1C(=O)N(c2ccccc2)N(c2ccccc2)C1=O` [PHENYLBUTAZONE] reads “Not Active”; that for `Cc1cccc(Nc2cc(Cl)nc(SCC(=O)O)n2)c1C` [PIRINIXIC ACID], “Not Active”; that for `CC[C@H](C)C(=O)O[C@H]1C[C@H](O)C=C2C=C[C@H](C)[C@H](CC[C@@H](O)C[C@@H](O)CC(=O)O)[C@H]21` [PRAVASTATIN], “Not Active”.
As to `CC(C)(Sc1cc(C(C)(C)C)c(O)c(C(C)(C)C)c1)Sc1cc(C(C)(C)C)c(O)c(C(C)(C)C)c1` [PROBUCOL], the IC50 entry is reported as “Not Active”.
Take COBALT(II) ACETYLACETONATE: the IC50 result is reported as “Not Active” and the Ki entry is reported as “Not Active”.
For the compound INSULIN HUMAN, the IC50 result is “Not Active” and the Ki entry is reported as “Not Active”.
Consider POLYVINYL ALCOHOL, for which the IC50 result was “Not Active” and the Ki entry was “Not Active”.

Another data set concerns the target T1, Cathepsin G (Homo sapiens, UniProt P08311).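 Further: inhibition of Cathepsin G enzyme activity, tested on an AMC-conjugated peptide substrate; in other assays of this panel Not Active means under 50% inhibition at 10 µM.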
T1 sequence (P08311 whole entry): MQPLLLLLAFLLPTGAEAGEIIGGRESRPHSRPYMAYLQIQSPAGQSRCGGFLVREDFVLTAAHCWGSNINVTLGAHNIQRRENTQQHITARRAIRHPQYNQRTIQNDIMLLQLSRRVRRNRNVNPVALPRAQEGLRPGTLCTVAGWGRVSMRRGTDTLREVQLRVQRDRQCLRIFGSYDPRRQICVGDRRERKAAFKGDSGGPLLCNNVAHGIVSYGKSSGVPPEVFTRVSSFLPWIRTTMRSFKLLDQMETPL
It is filed as tissue-based. To be noted: neutrophil.
`CC(C)(CO)C(O)C(=O)NCCCO` (stereo not given) [PANTHENOL]: the IC50 result is listed as “Not Active”.
Consider `COc1ccc(Cc2nccc3cc(OC)c(OC)cc23)cc1OC` [PAPAVERINE], for which the IC50 entry is on record as “Not Active”.
Regarding `CCCCC1C(=O)N(c2ccccc2)N(c2ccccc2)C1=O` [PHENYLBUTAZONE], the IC50 result is recorded as “Not Active”.
Same read-out and setting: the result for `Cc1cccc(Nc2cc(Cl)nc(SCC(=O)O)n2)c1C` [PIRINIXIC ACID] reads “Not Active”.
On the same count and under the same terms, next, `CC[C@H](C)C(=O)O[C@H]1C[C@H](O)C=C2C=C[C@H](C)[C@H](CC[C@@H](O)C[C@@H](O)CC(=O)O)[C@H]21` [PRAVASTATIN]: “Not Active”; `CC(C)(Sc1cc(C(C)(C)C)c(O)c(C(C)(C)C)c1)Sc1cc(C(C)(C)C)c(O)c(C(C)(C)C)c1` [PROBUCOL]: “Not Active”.
As for COBALT(II) ACETYLACETONATE, the IC50 result is on record as “Not Active” and the Ki entry was “Not Active”.
With INSULIN HUMAN, the IC50 entry was “Not Active” and the Ki entry is recorded as “Not Active”.
Regarding POLYVINYL ALCOHOL, the IC50 entry was “Not Active” and the Ki result is reported as “Not Active”.

A further data set deals with Melanocortin receptor 4 (Homo sapiens, UniProt P32245). In kind it is cell membranes, Membrane. Conditions: hek293.
Chain of Melanocortin receptor 4 (P32245 whole entry): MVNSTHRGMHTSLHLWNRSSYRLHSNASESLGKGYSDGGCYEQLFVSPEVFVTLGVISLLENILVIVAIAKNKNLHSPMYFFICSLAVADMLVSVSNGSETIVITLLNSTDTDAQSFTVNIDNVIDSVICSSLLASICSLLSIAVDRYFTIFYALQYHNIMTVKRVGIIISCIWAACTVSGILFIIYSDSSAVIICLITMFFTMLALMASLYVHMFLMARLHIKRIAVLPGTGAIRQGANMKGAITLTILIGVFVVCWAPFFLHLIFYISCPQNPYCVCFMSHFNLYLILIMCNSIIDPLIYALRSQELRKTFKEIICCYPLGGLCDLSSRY
Consider `CC(C)(CO)C(O)C(=O)NCCCO` (stereo not given) [PANTHENOL], for which the IC50 entry is recorded as “Not Active”.
Same read-out and setting: next, `COc1ccc(Cc2nccc3cc(OC)c(OC)cc23)cc1OC` [PAPAVERINE]: “Not Active”.
As for `CCCCC1C(=O)N(c2ccccc2)N(c2ccccc2)C1=O` [PHENYLBUTAZONE], the IC50 entry is reported as “Not Active”.
Still for that read-out and setting: next, `Cc1cccc(Nc2cc(Cl)nc(SCC(=O)O)n2)c1C` [PIRINIXIC ACID]: “Not Active”; `CC[C@H](C)C(=O)O[C@H]1C[C@H](O)C=C2C=C[C@H](C)[C@H](CC[C@@H](O)C[C@@H](O)CC(=O)O)[C@H]21` [PRAVASTATIN]: “Not Active”.
Same read-out and setting: the result for `CC(C)(Sc1cc(C(C)(C)C)c(O)c(C(C)(C)C)c1)Sc1cc(C(C)(C)C)c(O)c(C(C)(C)C)c1` [PROBUCOL] reads “Not Active”.
Turning to COBALT(II) ACETYLACETONATE, the IC50 entry was “Not Active” and the Ki result is given as “Not Active”.
As to INSULIN HUMAN, the IC50 result is given as “Not Active” and the Ki entry was “Not Active”.
Take POLYVINYL ALCOHOL: the IC50 result is on record as “Not Active” and the Ki entry is “Not Active”.

The next data set addresses cGMP-specific 3',5'-cyclic phosphodiesterase (Homo sapiens, UniProt O76074). The data set is described as follows: DRUGMATRIX: Phosphodiesterase PDE5 enzyme inhibition (substrate: [3H]cGMP + cGMP). It is filed as tissue-based. To be noted: platelet; Not Active = under 50% inhibition at 10 µM.
Take `CC(C)(CO)C(O)C(=O)NCCCO` (stereo not given) [PANTHENOL]: the IC50 result was “Not Active”.
As to `COc1ccc(Cc2nccc3cc(OC)c(OC)cc23)cc1OC` [PAPAVERINE], the IC50 result was “Not Active”.
Still for that read-out and setting: next, `CCCCC1C(=O)N(c2ccccc2)N(c2ccccc2)C1=O` [PHENYLBUTAZONE]: “Not Active”; `Cc1cccc(Nc2cc(Cl)nc(SCC(=O)O)n2)c1C` [PIRINIXIC ACID]: “Not Active”; `CC[C@H](C)C(=O)O[C@H]1C[C@H](O)C=C2C=C[C@H](C)[C@H](CC[C@@H](O)C[C@@H](O)CC(=O)O)[C@H]21` [PRAVASTATIN]: “Not Active”.
On the same count and under the same terms, the result for `CC(C)(Sc1cc(C(C)(C)C)c(O)c(C(C)(C)C)c1)Sc1cc(C(C)(C)C)c(O)c(C(C)(C)C)c1` [PROBUCOL] reads “Not Active”.
With COBALT(II) ACETYLACETONATE, the IC50 result is on record as “Not Active” and the Ki result is listed as “Not Active”.
As for INSULIN HUMAN, the IC50 result is reported as “Not Active” and the Ki result was “Not Active”.
On to POLYVINYL ALCOHOL, for which the IC50 entry was “Not Active” and the Ki result was “Not Active”.

For the next data set, the target named is D(1A) dopamine receptor (Homo sapiens, UniProt P21728). The data set is described as follows: DRUGMATRIX: Dopamine D1 radioligand binding (ligand: [3H] SCH-23390). It is filed as cell membranes, CHO, Membrane. Conditions: cho; Not Active = under 50% inhibition at 10 µM.
Chain of D(1A) dopamine receptor (P21728 whole entry): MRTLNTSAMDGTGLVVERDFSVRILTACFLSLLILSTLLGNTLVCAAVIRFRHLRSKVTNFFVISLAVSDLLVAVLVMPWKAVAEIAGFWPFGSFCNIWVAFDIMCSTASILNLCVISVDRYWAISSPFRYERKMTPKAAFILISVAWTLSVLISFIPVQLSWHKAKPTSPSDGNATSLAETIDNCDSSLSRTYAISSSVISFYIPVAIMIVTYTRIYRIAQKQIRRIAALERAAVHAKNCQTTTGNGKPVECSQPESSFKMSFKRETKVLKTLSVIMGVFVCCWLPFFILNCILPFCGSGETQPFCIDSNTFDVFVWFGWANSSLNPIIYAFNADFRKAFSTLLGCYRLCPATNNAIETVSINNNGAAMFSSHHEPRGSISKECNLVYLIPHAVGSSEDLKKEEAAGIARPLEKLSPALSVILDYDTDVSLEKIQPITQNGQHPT
Turning to `CC(C)(CO)C(O)C(=O)NCCCO` (stereo not given) [PANTHENOL], the IC50 result is listed as “Not Active”.
Still for that read-out and setting: next, `COc1ccc(Cc2nccc3cc(OC)c(OC)cc23)cc1OC` [PAPAVERINE]: “Not Active”.
Still for that read-out and setting: the result for `CCCCC1C(=O)N(c2ccccc2)N(c2ccccc2)C1=O` [PHENYLBUTAZONE] reads “Not Active”.
Same read-out and setting: next, `Cc1cccc(Nc2cc(Cl)nc(SCC(=O)O)n2)c1C` [PIRINIXIC ACID]: “Not Active”; `CC[C@H](C)C(=O)O[C@H]1C[C@H](O)C=C2C=C[C@H](C)[C@H](CC[C@@H](O)C[C@@H](O)CC(=O)O)[C@H]21` [PRAVASTATIN]: “Not Active”.
For `CC(C)(Sc1cc(C(C)(C)C)c(O)c(C(C)(C)C)c1)Sc1cc(C(C)(C)C)c(O)c(C(C)(C)C)c1` [PROBUCOL], the IC50 result is listed as “Not Active”.
Regarding COBALT(II) ACETYLACETONATE, the IC50 result is listed as “Not Active” and the Ki result is reported as “Not Active”.
For the compound INSULIN HUMAN, the IC50 result was “Not Active” and the Ki entry was “Not Active”.
As for POLYVINYL ALCOHOL, the IC50 entry is given as “Not Active” and the Ki entry was “Not Active”.

For another data set, the target named is T2, Muscarinic acetylcholine receptor M2 (Homo sapiens, UniProt P08172). Further: in other assays of this panel Not Active means under 50% inhibition at 10 µM.
T2 sequence (P08172 whole entry): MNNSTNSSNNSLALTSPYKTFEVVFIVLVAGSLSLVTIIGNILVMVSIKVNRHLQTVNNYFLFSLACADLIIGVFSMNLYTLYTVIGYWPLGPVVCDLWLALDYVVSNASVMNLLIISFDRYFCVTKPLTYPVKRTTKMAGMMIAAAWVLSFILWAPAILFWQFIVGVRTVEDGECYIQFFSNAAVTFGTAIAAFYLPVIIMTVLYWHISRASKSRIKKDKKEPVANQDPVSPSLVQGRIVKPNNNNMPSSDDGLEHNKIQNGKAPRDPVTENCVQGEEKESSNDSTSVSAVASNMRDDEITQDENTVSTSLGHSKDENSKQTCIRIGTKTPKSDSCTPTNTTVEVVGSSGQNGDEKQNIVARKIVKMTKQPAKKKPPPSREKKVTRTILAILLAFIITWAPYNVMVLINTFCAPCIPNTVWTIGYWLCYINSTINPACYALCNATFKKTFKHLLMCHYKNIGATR
In kind it is cell membranes, CHO-K1, Membrane. Conditions: cho-k1.
In the case of `CC(C)(CO)C(O)C(=O)NCCCO` (stereo not given) [PANTHENOL], the IC50 entry is on record as “Not Active”.
The same measure, in the same setting: next, `COc1ccc(Cc2nccc3cc(OC)c(OC)cc23)cc1OC` [PAPAVERINE]: “Not Active”; `CCCCC1C(=O)N(c2ccccc2)N(c2ccccc2)C1=O` [PHENYLBUTAZONE]: “Not Active”.
Still for that read-out and setting: next, `Cc1cccc(Nc2cc(Cl)nc(SCC(=O)O)n2)c1C` [PIRINIXIC ACID]: “Not Active”; `CC[C@H](C)C(=O)O[C@H]1C[C@H](O)C=C2C=C[C@H](C)[C@H](CC[C@@H](O)C[C@@H](O)CC(=O)O)[C@H]21` [PRAVASTATIN]: “Not Active”; `CC(C)(Sc1cc(C(C)(C)C)c(O)c(C(C)(C)C)c1)Sc1cc(C(C)(C)C)c(O)c(C(C)(C)C)c1` [PROBUCOL]: “Not Active”.
Consider COBALT(II) ACETYLACETONATE, for which the IC50 entry is “Not Active” and the Ki result is given as “Not Active”.
For INSULIN HUMAN, the IC50 entry is reported as “Not Active” and the Ki entry is “Not Active”.
With POLYVINYL ALCOHOL, the IC50 entry is “Not Active” and the Ki entry is listed as “Not Active”.
